Where two headings read alike, the source gives them in different places.
System: GRMD plasma proteins
Format: in vivo, dog
[1] = Post-Treatment to GRMD baseline, Increased in GRMD

## O=c1ccc(-c2cnc(OCC(F)(F)F)nc2)nn1Cc1cncc(F)c1 [EDG-5506]
[1]
  Change from GRMD Baseline (fraction): Tyrosine-protein phosphatase non-receptor type 11 (PTPN11): -0.1671 fraction
  Change from GRMD Baseline (fraction): UMP-CMP kinase (CMPK1): 0.3595 fraction
  Change from GRMD Baseline (fraction): Ubiquitin carboxyl-terminal hydrolase 25 (USP25): 0.0097 fraction
  Change from GRMD Baseline (fraction): Ubiquitin carboxyl-terminal hydrolase isozyme L1 (UCHL1): 0.0043 fraction
  Change from GRMD Baseline (fraction): Ubiquitin-fold modifier 1 (UFM1): -0.1676 fraction
  Change from GRMD Baseline (fraction): Vascular cell adhesion protein 1 (VCAM1): -0.0398 fraction
  Change from GRMD Baseline (fraction): Vitamin K-dependent protein C (PROC): 0.0209 fraction
  Change from GRMD Baseline (fraction): Vitronectin (VTN): -0.1254 fraction
  Change from GRMD Baseline (fraction): cAMP-dependent protein kinase catalytic subunit alpha (PRKACA): -0.3909 fraction
  Change from GRMD Baseline (fraction): dCTP pyrophosphatase 1 (DCTPP1): -0.286 fraction
  Chitotriosidase-1 (CHIT1): Change from GRMD Baseline (fraction): 0.0322 fraction
  Chorionic somatomammotropin hormone (CSH1 CSH2): Change from GRMD Baseline (fraction): -0.0339 fraction
  Chromobox protein homolog 5 (CBX5): Change from GRMD Baseline (fraction): 0.2228 fraction
  Coagulation Factor X (F10): Change from GRMD Baseline (fraction): 0.1794 fraction
  Coagulation factor IX (F9): Change from GRMD Baseline (fraction): 0.0608 fraction
  Complement component 1 Q subcomponent-binding protein, mitochondrial (C1QBP): Change from GRMD Baseline (fraction): 0.0901 fraction
  Connective tissue growth factor (CTGF): Change from GRMD Baseline (fraction): -0.0093 fraction
  Cyclin-dependent kinase 1:G2/mitotic-specific cyclin-B1 complex (CDC2 CCNB1): Change from GRMD Baseline (fraction): 0.0208 fraction
  Cyclin-dependent kinase 5:Cyclin-dependent kinase 5 activator 1 complex (CDK5 CDK5R1): Change from GRMD Baseline (fraction): 0.0687 fraction
  Cytokine receptor-like factor 1:Cardiotrophin-like cytokine factor 1 Complex (CRLF1 CLCF1): Change from GRMD Baseline (fraction): 0.0138 fraction
  Dual 3',5'-cyclic-AMP and -GMP phosphodiesterase 11A (PDE11A): Change from GRMD Baseline (fraction): 0.0321 fraction
  Ectodysplasin-A, secreted form (EDA): Change from GRMD Baseline (fraction): 0.0092 fraction
  Endothelial cell-selective adhesion molecule (ESAM): Change from GRMD Baseline (fraction): -0.0069 fraction
  Endothelial monocyte-activating polypeptide 2 (AIMP1): Change from GRMD Baseline (fraction): -0.0021 fraction
  Extracellular superoxide dismutase [Cu-Zn] (SOD3): Change from GRMD Baseline (fraction): 0.0677 fraction
  Ficolin-2 (FCN2): Change from GRMD Baseline (fraction): 0.0082 fraction
  Fms-related tyrosine kinase 3 ligand (FLT3LG): Change from GRMD Baseline (fraction): 0.0399 fraction
  Galactoside 3(4)-L-fucosyltransferase (FUT3): Change from GRMD Baseline (fraction): 0.1128 fraction
  Galectin-10 (CLC): Change from GRMD Baseline (fraction): 0.0216 fraction
  Glial fibrillary acidic protein (GFAP): Change from GRMD Baseline (fraction): -0.0254 fraction
  Glycylpeptide N-tetradecanoyltransferase 1 (NMT1): Change from GRMD Baseline (fraction): 0.0839 fraction
  Group 10 secretory phospholipase A2 (PLA2G10): Change from GRMD Baseline (fraction): 0.0518 fraction
  Growth hormone receptor (GHR): Change from GRMD Baseline (fraction): 0.0479 fraction
  Growth-regulated alpha protein (CXCL1): Change from GRMD Baseline (fraction): -0.0445 fraction
  Growth/differentiation factor 15 (GDF15): Change from GRMD Baseline (fraction): -0.0019 fraction
  Hepatocyte growth factor (HGF): Change from GRMD Baseline (fraction): 0.0007 fraction
  Hepcidin (HAMP): Change from GRMD Baseline (fraction): -0.0103 fraction
  Immunoglobulin M (IGHM IGJ IGK@ IGL@): Change from GRMD Baseline (fraction): 0.0023 fraction
  Importin subunit alpha-1 (KPNA2): Change from GRMD Baseline (fraction): -0.1696 fraction
  Induced myeloid leukemia cell differentiation protein Mcl-1 (MCL1): Change from GRMD Baseline (fraction): -0.1236 fraction
  Inorganic pyrophosphatase (PPA1): Change from GRMD Baseline (fraction): -0.0163 fraction
  Insulin-like growth factor-binding protein 7 (IGFBP7): Change from GRMD Baseline (fraction): 0.064 fraction
  Integrin alpha-IIb: beta-3 complex (ITGA2B ITGB3): Change from GRMD Baseline (fraction): 0.0053 fraction
  Interleukin-4 (IL4): Change from GRMD Baseline (fraction): -0.0251 fraction
  Interleukin-6 receptor subunit beta (IL6ST): Change from GRMD Baseline (fraction): 0.06 fraction
  Interleukin-8 (CXCL8): Change from GRMD Baseline (fraction): -0.0291 fraction
  Interleukin-10 receptor subunit beta (IL10RB): Change from GRMD Baseline (fraction): -0.0324 fraction
  Interleukin-17 receptor C (IL17RC): Change from GRMD Baseline (fraction): -0.0159 fraction
  Interleukin-18 receptor accessory protein (IL18RAP): Change from GRMD Baseline (fraction): -0.0292 fraction
  Interleukin-27 (IL27 EBI3): Change from GRMD Baseline (fraction): -0.0149 fraction
  Interleukin-36 beta (IL36B): Change from GRMD Baseline (fraction): 0.0098 fraction
  Killer cell immunoglobulin-like receptor 3DS1 (KIR3DS1): Change from GRMD Baseline (fraction): 0.1583 fraction
  Killer cell lectin-like receptor subfamily F member 1 (KLRF1): Change from GRMD Baseline (fraction): 0.2014 fraction
  Lamin-B1 (LMNB1): Change from GRMD Baseline (fraction): -0.0238 fraction
  Laminin (LAMA1 LAMB1 LAMC1): Change from GRMD Baseline (fraction): 0.0548 fraction
  Low-density lipoprotein receptor-related protein 1B (LRP1B): Change from GRMD Baseline (fraction): -0.0345 fraction
  Macrophage-stimulating protein receptor (MST1R): Change from GRMD Baseline (fraction): 0.0197 fraction
  Matrilin-3 (MATN3): Change from GRMD Baseline (fraction): -0.0333 fraction
  Matrilysin (MMP7): Change from GRMD Baseline (fraction): -0.0041 fraction
  N-terminal pro-BNP (NPPB): Change from GRMD Baseline (fraction): -0.0202 fraction
  NKG2D ligand 3 (ULBP3): Change from GRMD Baseline (fraction): 0.0123 fraction
  Neural cell adhesion molecule L1-like protein (CHL1): Change from GRMD Baseline (fraction): -0.0412 fraction
  Neurexophilin-1 (NXPH1): Change from GRMD Baseline (fraction): 0.3842 fraction
  OX-2 membrane glycoprotein (CD200): Change from GRMD Baseline (fraction): 0.1164 fraction
  Persephin (PSPN): Change from GRMD Baseline (fraction): -0.0043 fraction
  Phosphatidylinositol 4,5-bisphosphate 3-kinase catalytic subunit gamma isoform (PIK3CG): Change from GRMD Baseline (fraction): 0.0292 fraction
  Pituitary adenylate cyclase-activating polypeptide 27 (ADCYAP1): Change from GRMD Baseline (fraction): 0.0483 fraction
  Platelet factor 4 (PF4): Change from GRMD Baseline (fraction): 0.0577 fraction
  Platelet glycoprotein VI (GP6): Change from GRMD Baseline (fraction): 0.0535 fraction
  Prolactin (PRL): Change from GRMD Baseline (fraction): -0.0256 fraction
  Prolactin receptor (PRLR): Change from GRMD Baseline (fraction): 0.085 fraction
  Proteasome subunit alpha type-6 (PSMA6): Change from GRMD Baseline (fraction): 0.0724 fraction
  Protein E7_HPV18 (Human-virus): Change from GRMD Baseline (fraction): 0.0128 fraction
  Proto-oncogene tyrosine-protein kinase receptor Ret (RET): Change from GRMD Baseline (fraction): 0.0043 fraction
  RNA-binding protein 39 (RBM39): Change from GRMD Baseline (fraction): -0.1347 fraction
  Ras GTPase-activating protein 1 (RASA1): Change from GRMD Baseline (fraction): -0.0705 fraction
  Ribosome maturation protein SBDS (SBDS): Change from GRMD Baseline (fraction): 0.0714 fraction
  SPARC-related modular calcium-binding protein 1 (SMOC1): Change from GRMD Baseline (fraction): -0.0726 fraction
  Secreted and transmembrane protein 1 (SECTM1): Change from GRMD Baseline (fraction): -0.1238 fraction
  Serine/threonine-protein kinase PAK 3 (PAK3): Change from GRMD Baseline (fraction): 0.077 fraction
  Serine/threonine-protein kinase PAK 7 (PAK7): Change from GRMD Baseline (fraction): -0.0176 fraction
  Serine/threonine-protein kinase pim-1 (PIM1): Change from GRMD Baseline (fraction): 0.0551 fraction
  Serum amyloid A-1 protein (SAA1): Change from GRMD Baseline (fraction): -0.1642 fraction
  Sialic acid-binding Ig-like lectin 7 (SIGLEC7): Change from GRMD Baseline (fraction): -0.0123 fraction
  Small ubiquitin-related modifier 3 (SUMO3): Change from GRMD Baseline (fraction): -0.0342 fraction
  Stromelysin-1 (MMP3): Change from GRMD Baseline (fraction): 0.0381 fraction
  Stromelysin-2 (MMP10): Change from GRMD Baseline (fraction): -0.0469 fraction
  Synaptosomal-associated protein 25 (SNAP25): Change from GRMD Baseline (fraction): 0.0227 fraction
  T-cell surface glycoprotein CD4 (CD4): Change from GRMD Baseline (fraction): 0.004 fraction
  T-lymphocyte activation antigen CD86 (CD86): Change from GRMD Baseline (fraction): 0.0642 fraction
  TATA-box-binding protein (TBP): Change from GRMD Baseline (fraction): -0.0819 fraction
  Thyroxine-binding globulin (SERPINA7): Change from GRMD Baseline (fraction): -0.0761 fraction
  Transcription factor IIIB 90 kDa subunit (BRF1): Change from GRMD Baseline (fraction): 0.0702 fraction
  Tumor necrosis factor ligand superfamily member 18 (TNFSF18): Change from GRMD Baseline (fraction): 0.0235 fraction
  Tumor necrosis factor receptor superfamily member 13B (TNFRSF13B): Change from GRMD Baseline (fraction): -0.0295 fraction
  Tumor necrosis factor receptor superfamily member 13C (TNFRSF13C): Change from GRMD Baseline (fraction): -0.0266 fraction
  Tumor-associated calcium signal transducer 2 (TACSTD2): Change from GRMD Baseline (fraction): -0.0008 fraction
  Ubiquitin-conjugating enzyme E2 G2 (UBE2G2): Change from GRMD Baseline (fraction): -0.0144 fraction
  WNT1-inducible-signaling pathway protein 1 (WISP1): Change from GRMD Baseline (fraction): 0.0281 fraction
  WNT1-inducible-signaling pathway protein 3 (WISP3): Change from GRMD Baseline (fraction): 0.0371 fraction
  alpha-2-macroglobulin receptor-associated protein (LRPAP1): Change from GRMD Baseline (fraction): -0.0289 fraction
  cGMP-dependent 3',5'-cyclic phosphodiesterase (PDE2A): Change from GRMD Baseline (fraction): 0.1206 fraction
Protein deglycase DJ-1 (PARK7), EDG-5506 treatment to GRMD baseline
  Change from GRMD Baseline (fraction): 0.1853 fraction
Protein deglycase DJ-1 (PARK7), Post-Treatment to GRMD baseline
  Change from GRMD Baseline (fraction): -0.0618 fraction
Proto-oncogene vav (VAV1), EDG-5506 treatment to GRMD baseline
  Change from GRMD Baseline (fraction): 0.0609 fraction
Proto-oncogene vav (VAV1), Post-Treatment to GRMD baseline
  Change from GRMD Baseline (fraction): 0.2228 fraction
SH2 domain-containing protein 1A (SH2D1A), EDG-5506 treatment to GRMD baseline
  Change from GRMD Baseline (fraction): 0.0272 fraction
SH2 domain-containing protein 1A (SH2D1A), Post-Treatment to GRMD baseline
  Change from GRMD Baseline (fraction): 0.0814 fraction
Serine/threonine-protein kinase TBK1 (TBK1), EDG-5506 treatment to GRMD baseline
  Change from GRMD Baseline (fraction): 0.0144 fraction
Serine/threonine-protein kinase TBK1 (TBK1), Post-Treatment to GRMD baseline
  Change from GRMD Baseline (fraction): 0.0415 fraction
Sialic acid-binding Ig-like lectin 14 (SIGLEC14), EDG-5506 treatment to GRMD baseline
  Change from GRMD Baseline (fraction): 0.0643 fraction
Sialic acid-binding Ig-like lectin 14 (SIGLEC14), Post-Treatment to GRMD baseline
  Change from GRMD Baseline (fraction): -0.0249 fraction
Sorting nexin-4 (SNX4), EDG-5506 treatment to GRMD baseline
  Change from GRMD Baseline (fraction): -0.0709 fraction
Sorting nexin-4 (SNX4), Post-Treatment to GRMD baseline
  Change from GRMD Baseline (fraction): 0.088 fraction
Thrombin (F2), EDG-5506 treatment to GRMD baseline
  Change from GRMD Baseline (fraction): 0.2436 fraction
Thrombin (F2), Post-Treatment to GRMD baseline
  Change from GRMD Baseline (fraction): 0.0387 fraction
Transgelin-2 (TAGLN2), EDG-5506 treatment to GRMD baseline
  Change from GRMD Baseline (fraction): 0.1205 fraction
Transgelin-2 (TAGLN2), Post-Treatment to GRMD baseline
  Change from GRMD Baseline (fraction): -0.0633 fraction
WAP, kazal, immunoglobulin, kunitz and NTR domain-containing protein 1 (WFIKKN1), EDG-5506 treatment to GRMD baseline
  Change from GRMD Baseline (fraction): 0.1609 fraction
WAP, kazal, immunoglobulin, kunitz and NTR domain-containing protein 1 (WFIKKN1), Post-Treatment to GRMD baseline
  Change from GRMD Baseline (fraction): -0.0946 fraction

— publication PMC10178848, “Modulating fast skeletal muscle contraction protects skeletal muscle in animal models of Duchenne muscular dystrophy” (The Journal of Clinical Investigation, 2023)
